Data reported in ChEMBL document CHEMBL1148096, “Ophirapstanol trisulfate, a new biologically active steroid sulfate from the deep water marine sponge Topsentia ophiraphidites” (J Nat Prod, 1994).

Target: GTPase HRas (Homo sapiens, UniProt P01112)
Assay: Inhibition of human recombinant p21RAS by GDPX assay

Sequence of GTPase HRas (P01112 whole entry): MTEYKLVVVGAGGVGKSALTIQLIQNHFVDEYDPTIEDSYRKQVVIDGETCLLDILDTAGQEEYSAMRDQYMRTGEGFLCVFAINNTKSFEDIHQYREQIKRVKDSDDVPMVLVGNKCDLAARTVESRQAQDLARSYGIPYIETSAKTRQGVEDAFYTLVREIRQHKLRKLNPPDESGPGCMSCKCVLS

- IC50: 2550 nM
SMILES: CC(C)C(C)(C)C(C)CC[C@@H](C)[C@H]1CC[C@H]2[C@@H]3C[C@H](OS(=O)(=O)O)C4C[C@H](OS(=O)(=O)O)[C@@H](OS(=O)(=O)O)C[C@]4(C)[C@H]3CC[C@]12C (stereo partly specified) [OPHIRAPSTANOL TRISULFATE]
